Experiments:
human TLR7 = molecular target: T1, human TLR7 (Homo sapiens, UniProt Q9NYK1); test: HEK293 NFKB reporter assay, human TLR7; format: cell-based; details: HEK293 reporter cells expressing human TLR7; read-out: HEK293 hTLR7 EC50
T1 construct: host or cells: HEK293 reporter cells
T1 sequence (Q9NYK1 27-1049): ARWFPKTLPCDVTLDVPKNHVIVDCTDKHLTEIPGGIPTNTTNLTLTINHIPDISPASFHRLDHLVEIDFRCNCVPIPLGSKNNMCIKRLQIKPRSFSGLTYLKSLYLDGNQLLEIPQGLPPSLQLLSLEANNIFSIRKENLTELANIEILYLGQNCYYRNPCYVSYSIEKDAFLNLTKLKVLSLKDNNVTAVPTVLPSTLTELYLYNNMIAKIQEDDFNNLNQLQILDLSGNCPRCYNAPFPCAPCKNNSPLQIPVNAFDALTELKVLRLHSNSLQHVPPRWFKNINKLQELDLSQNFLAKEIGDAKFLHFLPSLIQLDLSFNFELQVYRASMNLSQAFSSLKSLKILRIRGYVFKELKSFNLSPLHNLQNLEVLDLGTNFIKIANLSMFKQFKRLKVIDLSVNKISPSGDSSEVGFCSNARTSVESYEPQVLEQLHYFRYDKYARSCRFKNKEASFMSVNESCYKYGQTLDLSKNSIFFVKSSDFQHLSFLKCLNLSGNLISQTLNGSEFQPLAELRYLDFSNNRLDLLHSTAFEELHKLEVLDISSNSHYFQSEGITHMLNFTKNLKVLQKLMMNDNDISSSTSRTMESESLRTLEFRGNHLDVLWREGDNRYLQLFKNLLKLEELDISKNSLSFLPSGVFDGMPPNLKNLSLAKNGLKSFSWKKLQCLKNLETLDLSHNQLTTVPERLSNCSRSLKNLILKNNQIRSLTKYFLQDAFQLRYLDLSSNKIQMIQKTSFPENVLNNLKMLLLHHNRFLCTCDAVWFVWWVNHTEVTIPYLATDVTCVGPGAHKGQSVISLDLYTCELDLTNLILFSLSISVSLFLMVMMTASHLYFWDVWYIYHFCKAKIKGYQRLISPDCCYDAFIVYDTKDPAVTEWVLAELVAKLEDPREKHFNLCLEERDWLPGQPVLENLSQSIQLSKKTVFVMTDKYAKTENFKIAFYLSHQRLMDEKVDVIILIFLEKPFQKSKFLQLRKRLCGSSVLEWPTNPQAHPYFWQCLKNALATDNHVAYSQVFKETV
Procedure: (§1) Exemplary 8-sulfonyl-2-aminobenzazepine compounds (8SO2Bz) of the invention were synthesized, purified, and characterized by mass spectrometry and shown to have the expected mass. Additional experimental procedures are found in the Examples. Activity against HEK293 NFKB reporter cells expressing human TLR7 or human TLR8 was measured according to Example 202.
(§2) Example 202 HEK Reporter Assay
(§3) HEK293 reporter cells expressing human TLR7 or human TLR8 were purchased from Invivogen and vendor protocols were followed for cellular propagation and experimentation. Briefly, cells were grown to 80-85% confluence at 5% CO2 in DMEM supplemented with 10% FBS, Zeocin, and Blasticidin. Cells were then seeded in 96-well flat plates at 4×10^4 cells/well with substrate containing HEK detection medium and immunostimulatory molecules (MSC). Activity was measured using a plate reader at 620-655 nm wavelength.

human TLR8 = molecular target: T2, human TLR8 (Homo sapiens, UniProt Q9NR97); test: HEK293 NFKB reporter assay, human TLR8; format: cell-based; details: HEK293 reporter cells expressing human TLR8; read-out: HEK293 hTLR8 EC50
T2 construct: host or cells: HEK293 reporter cells
T2 sequence (Q9NR97 27-1041): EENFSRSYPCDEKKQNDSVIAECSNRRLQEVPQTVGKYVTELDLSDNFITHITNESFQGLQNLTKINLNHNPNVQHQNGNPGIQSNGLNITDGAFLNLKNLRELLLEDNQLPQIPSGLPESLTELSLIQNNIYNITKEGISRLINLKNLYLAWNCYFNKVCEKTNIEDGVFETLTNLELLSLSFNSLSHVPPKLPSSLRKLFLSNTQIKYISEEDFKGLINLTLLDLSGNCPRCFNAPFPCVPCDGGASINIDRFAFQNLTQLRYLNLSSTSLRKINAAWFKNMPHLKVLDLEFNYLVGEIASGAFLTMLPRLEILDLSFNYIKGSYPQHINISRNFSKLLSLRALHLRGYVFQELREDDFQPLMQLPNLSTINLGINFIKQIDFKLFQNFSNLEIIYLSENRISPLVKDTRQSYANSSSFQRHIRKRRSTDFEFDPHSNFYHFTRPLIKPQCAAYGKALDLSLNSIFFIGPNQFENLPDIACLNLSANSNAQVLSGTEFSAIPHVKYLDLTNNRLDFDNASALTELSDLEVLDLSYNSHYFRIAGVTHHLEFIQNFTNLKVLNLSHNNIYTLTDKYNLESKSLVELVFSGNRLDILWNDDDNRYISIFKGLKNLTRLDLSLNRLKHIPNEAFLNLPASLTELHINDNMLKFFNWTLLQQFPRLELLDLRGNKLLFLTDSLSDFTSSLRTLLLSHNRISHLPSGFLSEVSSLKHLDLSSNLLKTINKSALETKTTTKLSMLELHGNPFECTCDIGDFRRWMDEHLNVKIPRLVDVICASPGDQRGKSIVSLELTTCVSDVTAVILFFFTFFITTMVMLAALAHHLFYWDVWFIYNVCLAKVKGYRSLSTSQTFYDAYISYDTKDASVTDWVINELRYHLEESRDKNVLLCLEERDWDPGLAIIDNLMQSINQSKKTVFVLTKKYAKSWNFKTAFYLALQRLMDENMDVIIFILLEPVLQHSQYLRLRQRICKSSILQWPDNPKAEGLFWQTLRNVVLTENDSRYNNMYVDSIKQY
Procedure: as §1, §2, §3

EC50 (human TLR7)	EC50 (human TLR8)	SMILES
> 9000 nM		CCCN(OCC)C(=O)C1=Cc2ccc(S(=O)(=O)c3ccc(C(=O)OC)cc3)cc2N=C(N)C1 [8SO2Bz-1]
> 5000 nM		CCCN(OCC)C(=O)C1=Cc2ccc(S(=O)(=O)NC)cc2N=C(N)C1 [8SO2Bz-3]
395 nM	< 2.3 nM	CCCN(OCCCC(=O)OC(C)(C)C)C(=O)C1=Cc2ccc(S(=O)(=O)N(C)C)cc2N=C(N)C1 [8SO2Bz-2]

— patent publication US20250145575A1, “MACROMOLECULE-SUPPORTED 8-SULFONYL-BENZAZEPINE COMPOUNDS AND THEIR USES” (BOLT BIOTHERAPEUTICS, INC., priority 2022, published 2025)
